From US12016849B2, “Magnesium picolinate compositions and methods of use” (Bonafide Health, LLC, priority 2016, dated 2024)

Legend:
[1] = Stability of magnesium picolinate (hygroscopicity, storage, light); type: physicochemical
Description: Magnesium picolinate compositions of the invention were stable during storage at room temperature.

[2] = Solubility of the isolated product; type: physicochemical
Protocol: Picolinic acid (3.7 g, 30 mmol) and magnesium acetate tetrahydrate (3.2 g, 15 mmol) were suspended in 25 mL of water. The slurry was stirred and heated at reflux overnight and then filtered to isolate 1.7 grams of crystalline MgPic. The remaining filtrate was cooled and evaporated to dryness, providing an additional 2.2 grams of amorphous MgPic with traces of residual acetate. The acetate was removed by washing the solid with ethanol to provide a 96% overall yield of MgPic (crystalline and amorphous). The ^1H-NMR spectrum of the product (FIG. 2) is consistent with the spectrum of a metal picolinate salt. […] The product contained acceptable trace levels of barium and other heavy metals of less than 200 ppm of each element tested. As such, embodiments of a MgPic composition may comprise less than about 200 ppm of barium and/or other heavy metals. In some embodiments, these compositions may comprise less than about 150, less than about 100, less than 50, or less than 20 ppm of barium and/or other heavy metals.
Picolinic acid and magnesium oxide (0.5 equiv.) were added to water, giving a white, stirrable slurry. The slurry was heated to 95-100° C. for 3 hours, and more water was added, tripling the initial amount of water [note: the procedure was based on the preparation of a related magnesium salt using magnesium oxide, in which the initial slurry completely dissolved at 80-90° C. […]

[3] = Serum levels of magnesium and picolinic acid, double-blind clinical study; type: in vivo; details: 500 mg magnesium picolinate vs control 916 mg picolinic acid and 90 mg magnesium; at 1, 4, 6 and 8 hours
Protocol: In a double-blind clinical study, 30 subjects are divided into two groups (n=15). The control group receives a supplement containing 916 mg picolinic acid and 90 mg of magnesium. The trial group receives a supplement containing 500 mg of magnesium picolinate (46 mg of magnesium and 454 mg of picolinate), or one-half the total dose of picolinate and magnesium of the control group. Serum levels of picolinic acid (ng/mL) and serum levels of magnesium (ng/mL) are measured at one hour, four hours, six hours, and eight hours. The mean serum magnesium levels for the trial group are between 80-120% of the control group at each time point. The mean serum picolinic acid levels for the trial group are between 80-120% of the control group at each time point.

[4] = Cerebrospinal fluid (CSF) levels of magnesium and picolinic acid, double-blind clinical study; type: in vivo; details: 500 mg magnesium picolinate vs control 916 mg picolinic acid and 90 mg magnesium; four and eight hours, spinal tap
Protocol: In a double-blind clinical study, 30 subjects are divided into two groups (n=15). The control group receives a supplement containing 916 mg picolinic acid and 90 mg of magnesium. The trial group receives a supplement containing 500 mg of magnesium picolinate (46 mg of magnesium and 454 mg of picolinate), or one-half the total dose of picolinate and magnesium of the control group. CSF levels of picolinic acid (ng/mL) and serum levels of magnesium (ng/mL) are measured at four hours and eight hours via spinal tap. The mean CSF magnesium levels for the trial group are between 80-120% of the control group at each time point. The mean CSF picolinic acid levels for the trial group are between 80-120% of the control group at each time point. Thus, magnesium picolinate provides 80-120% of the brain penetration of magnesium, and 80-120% of the brain penetration of picolinic acid, relative to twice the dose of magnesium and picolinic acid alone.

[5] = Magnesium and picolinic acid Cmax and Tmax, double-blind clinical study; type: in vivo; details: 500 mg magnesium picolinate vs control 916 mg picolinic acid and 90 mg magnesium
Protocol: In a double-blind clinical study, 30 subjects are divided into two groups (n=15). The control group receives a supplement containing 916 mg picolinic acid and 90 mg of magnesium. The trial group receives a supplement containing 500 mg of magnesium picolinate (46 mg of magnesium and 454 mg of picolinate), or one-half the total dose of picolinate and magnesium of the control group. Magnesium and picolinic acid Cmax (ng/mL) and Tmax (minutes) are measured in each subject. […] Thus, magnesium picolinate provides 80-120% of the maximum serum concentration of magnesium and picolinic acid relative to twice the dose of magnesium alone, or relative to twice the dose of picolinic acid alone. The mean magnesium and picolinic acid Tmax for the trial group are between 50-80% of the control group at each time point. Thus, magnesium picolinate delivers the maximum amount of bioavailable magnesium and picolinic acid in 50-80% less time relative to twice the dose of magnesium alone, or relative to twice the dose of picolinic acid alone.

[6] = Magnesium and picolinic acid AUC0→∞, double-blind clinical study; type: in vivo; details: 500 mg magnesium picolinate vs control 916 mg picolinic acid and 90 mg magnesium
Protocol: In a double-blind clinical study, 30 subjects are divided into two groups (n=15). The control group receives a supplement containing 916 mg picolinic acid and 90 mg of magnesium. The trial group receives a supplement containing 500 mg of magnesium picolinate (46 mg of magnesium and 454 mg of picolinate), or one-half the total dose of picolinate and magnesium of the control group. Magnesium and picolinic acid AUC0→∞ (ng·h/mL) are measured in each subject. The mean magnesium and picolinic acid AUC0→∞ for the trial group are between 80-120% of the control group at each time point.

[7] = Total magnesium in rat sera, liver and brain by atomic absorption spectroscopy; type: in vivo, Wistar rats; details: rats, 500 mg elemental Mg/kg diet, oral, 8 weeks; compared to magnesium oxide and control
Protocol: (§1) Seven male Wistar rats per treatment arm (age: 8 week, weight: 180±20 g) were housed in a controlled environment with a 12:12-h light-dark cycle at 22° C. and were provided with rat chow and water ad libitum. Following a 7-day acclimatization period, animals were randomly be divided into the following groups: • 1. Control (no treatment); • 2. Control+MgO (500 mg elemental Mg/kg diet), • 3. Control+MgPic (500 mg elemental Mg/kg diet), • 4. HFD (fed with high fat diet); • 5. HFD+MgO (500 mg elemental Mg/kg diet), • 6. HFD+MgPic (500 mg elemental Mg/kg diet).
(§2) The MgPic administered was prepared in accordance with the methods of the inventions described herein. All treatments were administered daily as an oral supplement per day for 8 weeks. […] The rats were subjected to several study protocols during the treatment period.
Laboratory Analyses—Following the treatment period, plasma was extracted and used for the determination of glucose, insulin, visceral fat, magnesium, and leptin concentrations, which was performed with an automatic analyzer (Samsung). Brain antioxidant enzyme catalase (CAT) and glutathione peroxidase (GSH-Px) were measured using a commercially available assay kit (Cayman Chemical, Ann Arbor, Mich., USA) according to the manufacturer's instructions. […] Morris Water Maze—The water maze test was performed according to methods known to those of skill in the art. The water maze was conducted in a large circular black pool (160 cm in diameter) containing water (temperature at 24±2° C.) that had been colored with a nontoxic black dye to contrast the rat. A 12-cm-diameter black-colored round platform was placed 1.5 cm below the water surface. All of the rats were placed in the water maze room 1 h before the water maze trial daily. […] The swimming pathway and latency in locating the hidden platform was recorded for each trial. […] All samples were processed to produce clear digests, and the total magnesium in each sample was measured by flame AAS (Perkin Elmer) using established and fully verified methods. […]

male Wistar rats [8] = experiment: Laboratory analyses after 8 weeks of treatment (glucose, insulin, visceral fat, leptin); type: in vivo; details: 500 mg elemental Mg/kg diet, oral
Protocol: as §1, §2
Laboratory Analyses—Following the treatment period, plasma was extracted and used for the determination of glucose, insulin, visceral fat, magnesium, and leptin concentrations, which was performed with an automatic analyzer (Samsung). Brain antioxidant enzyme catalase (CAT) and glutathione peroxidase (GSH-Px) were measured using a commercially available assay kit (Cayman Chemical, Ann Arbor, Mich., USA) according to the manufacturer's instructions. […] Morris Water Maze—The water maze test was performed according to methods known to those of skill in the art. The water maze was conducted in a large circular black pool (160 cm in diameter) containing water (temperature at 24±2° C.) that had been colored with a nontoxic black dye to contrast the rat. A 12-cm-diameter black-colored round platform was placed 1.5 cm below the water surface. All of the rats were placed in the water maze room 1 h before the water maze trial daily. The rats were given a maximum time of 60 s to find the hidden platform, and they were allowed to remain on the platform for 30 s. […] The rats were given a daily session of four trials per day for six consecutive days. The swimming pathway and latency in locating the hidden platform was recorded for each trial. On the seventh day, the time taken to reach the quadrant and the number of crossings of the target quadrant was tested with the platform removed. […] It is noted that rats fed a high fat diet experience diminished memory function. […] Atomic Absorption Spectroscopy—Rat sera, liver, brains were removed and the cerebral cortex and hippocampus were dissected for analysis after the treatment period. The tissues were stored at −70° C. until analysis using atomic absorption spectroscopy (AAS). […] All samples were processed to produce clear digests, and the total magnesium in each sample was measured by flame AAS (Perkin Elmer) using established and fully verified methods. […]

male Wistar rats [9] = experiment: Morris water maze; type: in vivo
Protocol: as §1
(§3) The MgPic administered was prepared in accordance with the methods of the inventions described herein. […]
(§4) Laboratory Analyses—Following the treatment period, plasma was extracted and used for the determination of glucose, insulin, visceral fat, magnesium, and leptin concentrations, which was performed with an automatic analyzer (Samsung). Brain antioxidant enzyme catalase (CAT) and glutathione peroxidase (GSH-Px) were measured using a commercially available assay kit (Cayman Chemical, Ann Arbor, Mich., USA) according to the manufacturer's instructions. […] The swimming pathway and latency in locating the hidden platform was recorded for each trial. […] All samples were processed to produce clear digests, and the total magnesium in each sample was measured by flame AAS (Perkin Elmer) using established and fully verified methods. […]

[10] = test system: Brain antioxidant enzyme catalase (CAT); experiment: Brain antioxidant enzyme activity, commercial assay kit; type: in vivo, Wistar rats; details: rats, 500 mg elemental Mg/kg diet, 8 weeks; compared to magnesium oxide
Protocol: as §1, §3, §4

[11] = test system: glutathione peroxidase (GSH-Px); experiment: as above; type: in vivo, Wistar rats; details: rats, 500 mg elemental Mg/kg diet, 8 weeks; compared to magnesium oxide
Protocol: as §1, §3, §4

[12] = compared to control specimens and those given magnesium oxide

O=C(O)c1ccccn1 [MgPic, magnesium picolinate]
stability during storage ([1]; 25° C./40% relative humidity): stable
stability during storage ([1]; 40° C./75% relative humidity): stable
stability / color change on exposure to light ([1]; listed as MgPic composition): stable on exposure to light
stability during storage ([1]; room temperature): stable
solubility in water ([2]; product of Example 2, clear and colorless solution): readily soluble in water
solubility in ethanol/water ([2]; product of Example 13): soluble in ethanol/water
mean serum magnesium levels, relative to control group [3]: 80-120%
mean serum picolinic acid levels, relative to control group [3]: 80-120%
mean CSF magnesium levels, relative to control group [4]: 80-120%
mean CSF picolinic acid levels, relative to control group [4]: 80-120%
mean magnesium Cmax, relative to control group [5]: 80-120%
mean magnesium Tmax, relative to control group [5]: 50-80%
mean picolinic acid Cmax, relative to control group [5]: 80-120%
mean picolinic acid Tmax, relative to control group [5]: 50-80%
mean magnesium AUC0→∞, relative to control group [6]: 80-120%
mean picolinic acid AUC0→∞, relative to control group [6]: 80-120%
magnesium levels in brain (FIG. 4A-4C) [7]: substantially improved magnesium levels
magnesium levels in liver (FIG. 4A-4C) [7]: substantially improved magnesium levels
magnesium levels in serum (FIG. 4A-4C) [7]: substantially improved magnesium levels
glucose (FIG. 4D-4E) (male Wistar rats [8]; [12]): reduced amounts
insulin (FIG. 4D-4E) (male Wistar rats [8]; [12]): reduced amounts
leptin secretion (FIG. 4G) (male Wistar rats [8]; compared to magnesium oxide): unexpectedly superior reduction of leptin secretion
visceral fat (FIG. 4F) (male Wistar rats [8]; compared to magnesium oxide): unexpectedly improved reduction of visceral fat
memory function: time taken to reach the quadrant with the hidden platform (FIG. 5) (male Wistar rats [9]; rats fed a high fat diet and rats fed the control diet, 500 mg elemental Mg/kg diet): improved memory function
memory function (FIG. 6) (male Wistar rats [9]; rats fed a high fat diet, compared to rats administered magnesium oxide): improvements
brain antioxidant enzyme (CAT) activity (FIG. 7A) [10]: superior improvements of increasing brain antioxidant enzyme (CAT) activity
brain antioxidant enzyme (GSH-Px) activity (FIG. 7B) [11]: superior improvements of increasing brain antioxidant enzyme (GSH-Px) activity

O=C(O)c1ccccn1 [amorphous solid, magnesium picolinate]
signs of degradation ([1]; after 30 days at 75% relative humidity and 40° C.): no signs of degradation
signs of degradation ([1]; after 60 days at 40% relative humidity and 25° C.): no signs of degradation
hygroscopicity ([1]; as measured by weight): not hygroscopic
stability / color change on exposure to light [1]: did not change color
